According to patent US9950067B2, “Trans carotenoids, their synthesis, formulation and uses” (Diffusion Pharmaceuticals, LLC, priority 2005, dated 2018):
Where “and” joins values, the source holds several entries; their conditions need not be identical. Identical values can stand only once. Entries after “also recorded” stand apart in the source; their conditions may differ. Like-named read-outs stand apart in the source and are kept apart here.

Columns and labels:
[1] = natural bipolar carotenoids, background; cited from earlier work
[2] = Solubility in water and aqueous formulations; format: physicochemical
Protocol: Formulation of TSC with Cyclodextrin-Mannitol • 1. Make up a solution containing equal-molar concentrations of the cyclodextrin and the TSC. Solutions containing over 20 mg TSC/ml of solution can be made this way. First, add the cyclodextrin to an injectable water, then add the TSC to that solution. • 2. Add d-mannitol, so that the final concentration is around 20 to 50 mg/ml of mannitol in solution. • 3. This solution can be added to isotonic saline in order to dilute it and still maintain the proper osmolality. Either add the solution to saline or add saline to the solution.
Formulation of TSC with Mannitol/Acetic Acid • 1. Make up a 0.01 M acetic acid solution in distilled water. • 2. […] Add the 0.0005 M acetic acid solution, slowly, to TSC. […] Add d-mannitol to above solution at a concentration of 50 mg/ml in order to obtain the proper osmolality. The pH of this solution is around 8 to 8.5. It should be close to being an isotonic solution, and, as such, can be injected directly into the blood stream.

[3] = Pulmonary administration, absorption into the blood stream; format: in vivo, rats
Protocol: In this method, the rats were intubated and a small volume (0.1 mL usually) of the TSC solution was injected followed by two 3-mL puffs of air.
Additional studies have been done with pulmonary dosing in which the effect of the volume of liquid injected into the trachea as well as using TSC in its formulated drug product form were investigated. The formulated drug product contained 8% γ-cyclodextrin, 2.3% mannitol and 50 mM glycine and 20 mg/mL TSC, reconstituted in sterile water. Sterile saline (0.9%) was added as a diluent in these studies in order to achieve the desired dosages. The same dose (937 μg/kg) was administered to all rats.

[4] = Intramuscular administration, absorption into the blood stream; format: in vivo, rats
Protocol: TSC is not absorbed via an intramuscular route when simply dissolved in de-ionized water; however, the addition of a cyclodextrin (as in the formulated drug product) results in absorption into the blood stream. Small volumes (0.05 mL) were injected into each thigh muscle of rats with TSC formulated with 2-hydroxypropyl-β-cyclodextrin or γ-cyclodextrin and dissolved in water.

[5] = Oral administration, plasma concentrations; format: in vivo, rats; conditions: with γ-cyclodextrin
Protocol: PE-50 tubing was used to deliver formulated TSC into the stomachs of rats, and plasma concentrations were measured after that. Rats were fasted for 24 hours prior to each experiment. Water was given ad libitum and coprophagy was prevented by using cages with wire-mesh floors. One study involved rats that were allowed food ad libitum after TSC administration and another study involved rats in which food was withheld after TSC administration.

[6] = test system: rats subjected to hemorrhagic shock; test: Treatment of hemorrhagic shock; format: in vivo; conditions: for treatment of hemorrhagic shock: rats
[7] = Preclinical study of myocardial infarction; format: in vivo; conditions: injected intravenously
[8] = Stability of TSC in formulation versus pH; conditions: aqueous formulation
[9] = test system: HCT116 human colon carcinoma tumors; test: Radiation sensitization of tumors grown on mice
Protocol: There were six study groups of five mice per group (for a total of 30 mice) designated Study Groups 1 through 6. All mice in the study were injected intravenously with either a TSC dose or a saline control for five successive days. As shown below, Study Groups 1, 2 and 3 received TSC doses A, B and C, which corresponds to 0.07, 0.14 and 0.28 mg/kg respectively for the study B, and 1.35, 0.54 and 0.18 mg/kg respectively for the study A.
Group 4 was injected as a saline control. At 45 minutes post-injection on each of the five successive days, the tumors of Study Groups 1-4 received 2 Gy irradiation. Study Group 5 received TSC only and Study Group 6 received saline only, and neither Study Group 5 nor 6 received irradiation. Tumor volumes in all Study Groups were measured weekly for the earlier of 4 weeks or until the tumors reached 4 times the volume at the start of treatment.

[10] = pulmonary, formulated drug product, 937 μg/kg

## CC(/C=C/C=C(\C)C(=O)O[C@@H]1O[C@H](CO[C@@H]2O[C@H](CO)[C@@H](O)[C@H](O)[C@H]2O)[C@@H](O)[C@H](O)[C@H]1O)=C\C=C\C=C(C)\C=C\C=C(/C)C(=O)O[C@@H]1O[C@H](CO[C@@H]2O[C@H](CO)[C@@H](O)[C@H](O)[C@H]2O)[C@@H](O)[C@H](O)[C@H]1O [crocin]
[1]
  solubility in water: significant solubility in water

## CCOC(=O)/C(C)=C/C=C/C(C)=C/C=C/C=C(C)/C=C/C=C(\C)C(=O)OCC [Compound E, Diethyl 2,6,11,15-Tetramethyl-hexadeca-2E,4E,6E,8E,10E,12E,14E-heptaene-1,16-diotate]
[2]; in water and in THF
  solubility: poorly soluble

## CC(/C=C/C=C(\C)C(=O)O)=C\C=C\C=C(C)\C=C\C=C(/C)C(=O)O [crocetin]
[1]
  solubility in water: only sparingly soluble in water

## CC(/C=C/C=C(\C)C(=O)[O-])=C\C=C\C=C(C)\C=C\C=C(/C)C(=O)[O-].[Na+].[Na+] [TSC, trans sodium crocetinate]
[2]; 0.0005 M acetic acid solution, aqueous buffer, thermodynamic from solid, read-out: Maximum solubility
  solubility: 6000 to 6500 µg/mL
[2]; 0.001 M acetic acid
  dissolution in acetic acid: doesn't dissolve
[2]; TSC and gamma-cyclodextrin
  TSC content of aqueous solution: ≤ 44 milligrams of TSC per ml of solution
[2]; formulated with cyclodextrin and mannitol
  TSC content of solution: over 20 mg TSC/ml of solution
[2]; water
  solubility in water: soluble in water
[3]; TSC in pH'd di-water
  pulmonary absorption without cyclodextrin: successful absorption into the blood stream
[3]; pulmonary, 937 μg/kg
  effect of larger injection volume of the same dose on bioavailability: greater bioavailability
[3]; [10]
  effect of γ-cyclodextrin on absorption into the systemic circulation: enhances absorption
  effect of γ-cyclodextrin on plasma clearance: increasing plasma clearance
[3]; rats, pulmonary
  time to reach the maximum plasma concentration: < 5 min
[4]; rat, plasma, im, 3347 μg/kg body weight, rats, intramuscular 3347 μg/kg with 14 mg 2-hydroxypropyl-β-cyclodextrin per kg
  bioavailability: 27%
[4]; rats, intramuscular 3347 μg/kg with 14 mg 2-hydroxypropyl-β-cyclodextrin per kg
  peak plasma TSC concentration: 4.8 µg/mL
[4]; simply dissolved in de-ionized water
  absorption via intramuscular route: not absorbed
[4]; with γ-cyclodextrin
  absorption via intramuscular route: successful absorption into the systemic circulation; also recorded: absorbed into the blood stream
[5]
  effect of γ-cyclodextrin on oral absorption: enhances absorption
[6]; rats subjected to hemorrhagic shock
  effect on tachycardia: reduce tachycardia
[6]; intramuscular injection
  treatment of hemorrhagic shock: successfully treated
[6]; pulmonary route
  treatment of hemorrhagic shock: successfully treated
[7]
  effect on ventricular fibrillation: prevented ventricular fibrillation
[8]
  stability versus pH: more stable at higher pHs
[9]; Study A, i.v. 5 days, 2 Gy irradiation 45 minutes post-injection
  optimal dosage: 0.18 mg/kg
[9]; Study B, i.v. 5 days, 2 Gy irradiation 45 minutes post-injection
  dosages that worked equally well: 0.07 mg/kg and 0.14 mg/kg
[9]; TSC alone, no irradiation, FIG. 3
  effect on tumor growth: does not appreciably affect tumor growth
